Test results taken from patent publication EP0520336A2, “Aldehyde derivatives and their use as calpain inhibitors” (FUJIREBIO Inc., priority 1991, dated 1992).

Biological target: a-chymotrypsin (Bos taurus, UniProt P00766)
Test: Measurement of inhibitory effect on a-chymotrypsin (glutaryl-L-phenylalanine-p-nitroanilide substrate)
Assay type: biochemical
Conditions: a-chymotrypsin activity, 25 ° C, pH = 7.8
Method: Test Example 3 Measurement of Inhibitory Effect on Protease other than Calpain
(2) Measurement of Inhibitory Effect on a-Chymotrypsin
The inhibitory effect on a-chymotrypsin was measured by a partially modified method of Erlanger, B. F. as described in Ach. Biochem. Biophys. 115, 206-210 (1966). […]
The mixture was preincubated at 25 ° C for 3 minutes. […] The increase of 405 nm absorbance was measured at 25 ° C with time, and the transition rate (a) of the absorbance per min was calculated.
The rate (b) of the absorbance of a blank sample treated similarly without any compound dissolved in combined dimethyl sulfoxide and 10% polyoxyethylene 60 hardened castor oil was measured. The inhibition of a-chymotrypsin activity was calculated in accordance with the formula [(b-a)/b] X 100, and the amount of each compound necessary to inhibit a-chymotrypsin activity by 50% [ICso] was calculated according to the method of Probit.
The inhibitory effect of SUAM-14541, a compound disclosed in Japanese Laid-Open Patent Application 1-121257, on a-chymotrypsin activity was measured for comparison.

- IC50: > 100 µM
SMILES: CC(C)C[C@H](NC(=O)OCc1ccccc1)C(=O)N[C@H](C=O)COCc1ccsc1 [Compound No. 3-6, L-N-benzyloxycarbonylleucine-(2S)-[1-formyl-2-(thiophene-3-ylmethyl)oxy]ethylamide]
